Structures can show the parent of a compound that is named as a salt.
Columns and labels:
[1] = dynamic moisture sorption, 25° C.
Method: Moisture sorption profiles were generated at 25° C. using an SGA-100 symmetrical gravimetric analyzer (TA Instrument, New Castle, Del.). The samples (5-20 mg) were exposed to 25% to 95% relative humidity (RH) at step size of 5% RH and from 95 to 99% RH at step size of 1% RH, with a maximum step time of 360 min. The equilibrium criteria were set to change of mass of less than 0.01% (w/w) for 5 min for each step. Nitrogen was used as the purge gas.

| stability in solution | relative humidity at which high/elevated hygroscopicity is seen [1] [% RH] | SMILES |
| --- | --- | --- |
| exhibit instability in solution | 95 | Cc1ncc(C[n+]2csc(CCO)c2C)c(N)n1 [Thiamine Cl HCl, thiamine chloride hydrochloride] |
| – | 88 | Cc1ncc(C[n+]2csc(CCO)c2C)c(N)n1.[Cl-] [Thiamine Cl, thiamine chloride] |

Source: patent US10717729B2, “Thiamine-organic acid salt” (Purdue Research Foundation, priority 2018, dated 2020)
